# What was measured:
# recombinant human TOP2A = biological target: T1, recombinant human TOP2A (Homo sapiens, UniProt P11388); assay: In vitro ATPase activity of TOP2A (coupled assay); type: biochemical; settings: n=3
# T1 construct: Using recombinant full-length human TOP2A and TOP2B enzymes; YFP (N, cleaved yes); made in house; host or cells: HEK293F
# Procedure: (§1) Topoisomerase proteins were diluted to 500 nM in storage buffer containing 20 mM HEPES pH 7.5, 500 mM NaCl, 0.5 mM TCEP, 25% glycerol, and 0.2 mg/mL BSA prior to use. A coupled assay was used to measure TOP2-catalyzed ATP hydrolysis in vitro[37] in Costar 96-well plates (Corning Incorporated). […] Reaction plates were pre-warmed to 30 °C for 5 min and ATP was added last to initiate the reaction. The reaction plate was placed in a CLARIOstarPlus plate reader (BMG Labtech) to measure NADH fluorescence at 30 °C every 30 s over 120 cycles using a 340-60 excitation filter and a 480-100 emission filter. Background fluorescence signals calculated from wells containing no ATP were subtracted from each measurement. The slope of NADH fluorescence decay in each well was calculated using the MARS software (BMG Labtech) and reaction wells that lacked topoisomerase inhibitor to account for photobleaching of NADH fluorescence served as background subtraction. Each presented data point was obtained from distinct sample. Values were normalized to untreated controls and plotted as a function of inhibitor concentration to determine IC50 values using Prism 9 (GraphPad).
# recombinant human TOP2B = biological target: T2, recombinant human TOP2B (Homo sapiens, UniProt Q02880); assay: In vitro ATPase activity of TOP2B (coupled assay); type: biochemical; settings: for SRbeta (SRTOP2B), TOP2 ATPase activity: TOP2A IC50 divided by TOP2B IC50; for IC50: n=3
# T2 construct: Using recombinant full-length human TOP2A and TOP2B enzymes; YFP (N, cleaved yes); made in house; host or cells: HEK293F
# T2 sequence (Q02880 1-1621 isoform Q02880-2): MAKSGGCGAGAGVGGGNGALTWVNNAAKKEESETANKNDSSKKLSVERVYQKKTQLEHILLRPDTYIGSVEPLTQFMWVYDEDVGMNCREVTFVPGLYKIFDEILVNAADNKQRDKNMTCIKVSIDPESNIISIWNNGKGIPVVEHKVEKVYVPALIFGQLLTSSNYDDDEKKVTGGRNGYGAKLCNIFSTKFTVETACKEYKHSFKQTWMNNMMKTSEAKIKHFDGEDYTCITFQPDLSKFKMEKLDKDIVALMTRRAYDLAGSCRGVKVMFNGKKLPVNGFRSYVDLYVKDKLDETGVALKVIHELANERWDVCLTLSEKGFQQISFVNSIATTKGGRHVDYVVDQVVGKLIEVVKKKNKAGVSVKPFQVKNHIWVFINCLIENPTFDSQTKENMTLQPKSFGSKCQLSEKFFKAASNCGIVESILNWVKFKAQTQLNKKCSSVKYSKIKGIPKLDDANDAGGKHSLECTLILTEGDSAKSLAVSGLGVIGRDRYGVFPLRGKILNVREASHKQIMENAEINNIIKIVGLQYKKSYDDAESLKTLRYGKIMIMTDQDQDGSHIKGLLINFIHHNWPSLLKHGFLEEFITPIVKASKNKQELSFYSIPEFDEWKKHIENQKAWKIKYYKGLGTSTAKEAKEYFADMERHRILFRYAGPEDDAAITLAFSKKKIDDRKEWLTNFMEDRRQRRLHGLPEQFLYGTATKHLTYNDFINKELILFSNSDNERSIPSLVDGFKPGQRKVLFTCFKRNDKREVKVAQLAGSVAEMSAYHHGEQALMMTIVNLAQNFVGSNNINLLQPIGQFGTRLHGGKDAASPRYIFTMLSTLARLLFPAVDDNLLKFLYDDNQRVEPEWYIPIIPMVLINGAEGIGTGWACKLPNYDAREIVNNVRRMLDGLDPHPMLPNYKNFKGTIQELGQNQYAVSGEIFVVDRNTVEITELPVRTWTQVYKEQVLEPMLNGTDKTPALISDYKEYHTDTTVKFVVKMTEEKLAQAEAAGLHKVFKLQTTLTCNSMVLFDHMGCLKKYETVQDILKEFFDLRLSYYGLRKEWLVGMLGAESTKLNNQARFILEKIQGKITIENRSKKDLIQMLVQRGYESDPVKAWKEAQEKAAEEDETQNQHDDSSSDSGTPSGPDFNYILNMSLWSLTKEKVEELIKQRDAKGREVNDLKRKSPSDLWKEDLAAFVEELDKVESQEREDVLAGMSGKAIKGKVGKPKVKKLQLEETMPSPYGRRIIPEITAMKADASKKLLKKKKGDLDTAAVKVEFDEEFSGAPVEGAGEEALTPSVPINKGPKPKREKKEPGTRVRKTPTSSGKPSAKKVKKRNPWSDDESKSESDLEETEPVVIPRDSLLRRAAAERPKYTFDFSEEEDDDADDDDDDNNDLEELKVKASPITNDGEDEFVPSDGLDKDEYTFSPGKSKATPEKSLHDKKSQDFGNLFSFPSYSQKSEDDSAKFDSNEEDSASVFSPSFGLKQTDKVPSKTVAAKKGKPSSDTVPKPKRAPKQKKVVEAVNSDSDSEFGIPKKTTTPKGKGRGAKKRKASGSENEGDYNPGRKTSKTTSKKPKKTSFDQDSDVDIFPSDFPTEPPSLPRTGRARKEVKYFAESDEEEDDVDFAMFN
# Procedure: as §1
# [1] = system: neonatal rat ventricular cardiomyocytes (NVCM); assay: Protection against DAU-induced cytotoxicity (LDH release) in NVCM; type: cell-based; parameters: key to Suppl.Fig.3 DAU-induced cytotoxicity (LDH release) in NVCM, mean of independent replicates / LDH release (DAU-induced cytotoxicity), mean of independent replicates: % of total LDH activity; settings: for minimal effective concentration: Rattus norvegicus, Cardiomyocyte, protection against DAU 1.2 µM, n=4, read-out: LEC = lowest effective concentration; for minimal effective concentration / LDH release (protection against DAU), mean of independent replicates: NVCM; for LDH release (protection against DAU), mean of independent replicates: Suppl.Fig.6b
# Procedure: (§2) The protective effects of the BNS-22 and newly prepared compounds were evaluated using primary cultures of neonatal rat cardiomyocytes isolated in house as previously described. Hearts isolated from 1- to 3-day-old Wistar rats were minced in buffer (1.2 mM MgSO4 · 7H2O, 116 mM NaCl, 5.3 mM KCl, 1.13 mM NaH2PO4 · H2O, 20 mM 4-(2-hydroxyethyl)-1-piperazine ethanesulfonic acid (HEPES), glucose 1 mg/mL) on ice, then serially digested (20 min, six repetitions) at 37 °C with collagenase type II (60 U/mL, Gibco). After 2 h pre-plating in a 150 mm Petri dish per approximately 20 hearts to minimize non-myocyte contamination, cells were plated in 24-well gelatin-coated plates at a density of 400,000 cells per well. Cells were cultured at 37 °C and 5% CO2 in Dulbecco’s modified Eagle medium (DMEM)/ F12 culture medium supplemented with 10% horse serum, 5% fetal bovine serum (FBS), 20 mM sodium pyruvate, 50 U/mL penicillin, and 50 μg/mL streptomycin. Freshly isolated cells were left for 40 h to attach and form a culture of spontaneously beating cardiomyocytes, then the medium was changed to DMEM/F12 medium supplemented with 5% fetal bovine serum, 20 mM sodium pyruvate, 50 U/mL penicillin, and 50 μg/mL streptomycin. For the experiments, the medium was changed to serum- and pyruvate-free DMEM/F12 with 50 U/mL penicillin and 50 μg/mL streptomycin. Cardiomyocytes were pretreated with BNS-22 or new compounds for 3 h and then coincubated with DAU (1.2 µM) for another 3 h. After the DAU treatment period, the culture medium was exchanged for the drug-free DMEM/F12 with 50 U/mL penicillin and 50 μg/mL streptomycin for the 48 h follow-up. Experiments to determine the inherent toxicity of each compound studied follow the same schedule, only no DAU was added. Subsequently, the culture medium sample was taken from each well for evaluation of lactate dehydrogenase (LDH) activity. The total LDH activity of each sample for normalization was measured after 1 h of incubation at 37 °C in lysis buffer (0.1 M potassium phosphate, 1% Triton X-100, 1 mM dithiothreitol (DTT), 2 mM EDTA, pH 7.8, 15 min in RT). All samples were immediately analyzed in Tris HCl buffer (pH 8.9) containing 35 mM lactic acid and 5 mM NAD^+. The rate of NAD^+ reduction was monitored spectrophotometrically at 340 nm for 2 min. The slope of the linear region was calculated, and the results were expressed as a percentage of the total LDH. Each presented data point was obtained from distinct sample.
# [2] = system: neonatal rat ventricular cardiomyocytes (NVCM); assay: Inherent toxicity (LDH release) in NVCM; type: cell-based; parameters: key to LDH release (inherent toxicity), mean of independent replicates: % of total LDH activity; settings: NVCM; for LTC = lowest toxic concentration: compound alone, n=4
# Procedure: as §2
# [3] = compound alone 0.1 µM, Suppl.Fig.4
# [4] = compound alone 1 µM, Suppl.Fig.4
# [5] = compound alone 10 µM, Suppl.Fig.4
# [6] = compound alone 30 µM, Suppl.Fig.4
# [7] = compound alone 0.01 µM, Suppl.Fig.6c
# [8] = compound alone 0.1 µM, Suppl.Fig.6c
# [9] = compound alone 1 µM, Suppl.Fig.6c
# [10] = compound alone 10 µM, Suppl.Fig.6c
# [11] = compound alone 30 µM, Suppl.Fig.6c
# [12] = compound alone 100 µM, Suppl.Fig.6c
# T1 sequence (P11388 whole entry): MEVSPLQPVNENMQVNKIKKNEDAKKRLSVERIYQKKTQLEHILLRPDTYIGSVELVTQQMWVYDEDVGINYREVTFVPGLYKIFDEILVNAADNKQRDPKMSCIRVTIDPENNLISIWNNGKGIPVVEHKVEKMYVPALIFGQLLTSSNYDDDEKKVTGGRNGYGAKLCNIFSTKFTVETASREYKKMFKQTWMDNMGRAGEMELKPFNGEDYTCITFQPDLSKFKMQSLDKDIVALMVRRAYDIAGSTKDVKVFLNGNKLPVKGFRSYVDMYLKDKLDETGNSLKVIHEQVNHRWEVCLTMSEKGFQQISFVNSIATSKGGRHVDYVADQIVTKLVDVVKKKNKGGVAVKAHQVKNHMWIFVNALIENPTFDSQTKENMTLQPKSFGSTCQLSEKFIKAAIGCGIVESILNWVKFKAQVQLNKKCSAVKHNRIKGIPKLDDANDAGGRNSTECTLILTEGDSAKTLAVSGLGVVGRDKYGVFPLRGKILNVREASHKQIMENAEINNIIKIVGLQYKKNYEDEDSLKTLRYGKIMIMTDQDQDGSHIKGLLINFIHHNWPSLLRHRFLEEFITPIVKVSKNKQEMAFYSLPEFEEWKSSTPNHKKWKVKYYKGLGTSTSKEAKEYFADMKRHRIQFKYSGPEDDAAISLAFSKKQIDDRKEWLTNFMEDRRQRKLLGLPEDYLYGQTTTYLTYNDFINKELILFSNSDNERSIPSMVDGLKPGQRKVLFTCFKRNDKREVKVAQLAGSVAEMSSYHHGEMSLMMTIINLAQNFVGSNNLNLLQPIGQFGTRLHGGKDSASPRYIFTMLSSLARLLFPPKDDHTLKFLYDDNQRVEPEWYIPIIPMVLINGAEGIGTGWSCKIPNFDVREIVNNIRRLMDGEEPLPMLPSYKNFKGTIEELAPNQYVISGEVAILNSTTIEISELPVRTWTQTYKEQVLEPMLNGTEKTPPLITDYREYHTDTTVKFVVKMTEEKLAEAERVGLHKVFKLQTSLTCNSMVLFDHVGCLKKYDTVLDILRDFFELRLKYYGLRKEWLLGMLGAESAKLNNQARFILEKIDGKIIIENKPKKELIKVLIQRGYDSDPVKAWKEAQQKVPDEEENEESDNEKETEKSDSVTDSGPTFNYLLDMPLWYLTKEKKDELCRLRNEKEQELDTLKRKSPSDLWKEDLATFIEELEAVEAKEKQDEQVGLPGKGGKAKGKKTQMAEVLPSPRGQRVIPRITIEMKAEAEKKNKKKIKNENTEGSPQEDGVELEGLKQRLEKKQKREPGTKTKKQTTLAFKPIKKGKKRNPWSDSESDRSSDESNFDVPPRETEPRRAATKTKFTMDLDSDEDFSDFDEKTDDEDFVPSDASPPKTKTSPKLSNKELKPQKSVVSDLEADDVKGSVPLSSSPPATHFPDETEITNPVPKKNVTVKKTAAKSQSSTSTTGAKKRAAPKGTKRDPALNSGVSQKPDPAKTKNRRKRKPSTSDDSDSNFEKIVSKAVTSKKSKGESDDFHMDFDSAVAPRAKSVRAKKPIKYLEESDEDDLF
Compound,IC50 (recombinant human TOP2A),"SRbeta (SRTOP2B), TOP2 ATPase activity (recombinant human TOP2B)",IC50 (recombinant human TOP2B),minimal effective concentration [1],"Suppl.Fig.3 DAU-induced cytotoxicity (LDH release) in NVCM, mean of independent replicates ([1]; compound 0.1 µM + DAU 1.2 µM)","Suppl.Fig.3 DAU-induced cytotoxicity (LDH release) in NVCM, mean of independent replicates ([1]; compound 1 µM + DAU 1.2 µM)","Suppl.Fig.3 DAU-induced cytotoxicity (LDH release) in NVCM, mean of independent replicates ([1]; compound 10 µM + DAU 1.2 µM)",LTC = lowest toxic concentration [2],"LDH release (inherent toxicity), mean of independent replicates [2, 3]","LDH release (inherent toxicity), mean of independent replicates [2, 4]","LDH release (inherent toxicity), mean of independent replicates [2, 5]","Suppl.Fig.3 DAU-induced cytotoxicity (LDH release) in NVCM, mean of independent replicates ([1]; compound 30 µM + DAU 1.2 µM)","LDH release (inherent toxicity), mean of independent replicates [2, 6]","LDH release (protection against DAU), mean of independent replicates ([1]; compound 0.01 µM + DAU 1.2 µM)","LDH release (protection against DAU), mean of independent replicates ([1]; compound 0.1 µM + DAU 1.2 µM)","LDH release (protection against DAU), mean of independent replicates ([1]; compound 1 µM + DAU 1.2 µM)","LDH release (protection against DAU), mean of independent replicates ([1]; compound 10 µM + DAU 1.2 µM)","LDH release (protection against DAU), mean of independent replicates ([1]; compound 30 µM + DAU 1.2 µM)","LDH release (protection against DAU), mean of independent replicates ([1]; compound 100 µM + DAU 1.2 µM)","LDH release (inherent toxicity), mean of independent replicates [2, 7]",also measured
CCCc1cc(=O)oc2c(C(=O)N3CCCc4ccccc43)c(OC)ccc12 [3c],1.27 µM,1.6,0.78 µM,1 µM,33.8238,29.3632,23.4291,> 10 µM,16.0204,16.3627,16.4282,–,–,–,–,–,–,–,–,–,"Suppl.Fig.3 DAU-induced cytotoxicity (LDH release) in NVCM, mean of independent replicates ([1]; compound 3 µM + DAU 1.2 µM): 26.6827; LDH release (inherent toxicity), mean of independent replicates ([2]; compound alone 3 µM, Suppl.Fig.4): 15.3033"
CCCOc1ccc2c(CCC)cc(=O)oc2c1C(=O)N1CCCc2ccccc21 [4c],1.87 µM,2.2,0.85 µM,0.1 µM,37.3488,27.8991,34.5307,–,16.7326,16.4897,23.8379,56.7644,34.5318,–,–,–,–,–,–,–,"Suppl.Fig.3 DAU-induced cytotoxicity (LDH release) in NVCM, mean of independent replicates ([1]; compound 0.01 µM + DAU 1.2 µM): 45.7304; Suppl.Fig.3 DAU-induced cytotoxicity (LDH release) in NVCM, mean of independent replicates ([1]; compound 100 µM + DAU 1.2 µM): 78.8192; LDH release (inherent toxicity), mean of independent replicates ([2]; compound alone 0.01 µM, Suppl.Fig.4): 13.5244; LDH release (inherent toxicity), mean of independent replicates ([2]; compound alone 100 µM, Suppl.Fig.4): 48.1102"
CCc1cc(=O)oc2c(C(=O)N3CCCc4ccccc43)c(OCCO)ccc12 [5b],1.42 µM,1.0,1.46 µM,10 µM,53.5677,49.2444,40.137,> 30 µM,13.7703,14.0098,14.5134,35.8495,14.3714,–,–,–,–,–,–,–,–
CCCc1cc(=O)oc2c(C(=O)N3CCCc4ccccc43)c(OCCN(C)C)ccc12 [compound 7],–,–,–,10 µM,–,–,–,–,–,–,–,–,–,44.2016,45.7696,39.8955,31.2866,33.8072,37.6314,12.5189,"LDH release (inherent toxicity), mean of independent replicates [2, 8]: 12.4578; LDH release (inherent toxicity), mean of independent replicates [2, 9]: 12.8607; LDH release (inherent toxicity), mean of independent replicates [2, 10]: 14.2154; LDH release (inherent toxicity), mean of independent replicates [2, 11]: 18.2491; LDH release (inherent toxicity), mean of independent replicates [2, 12]: 27.6932"
CCCc1cc(=O)oc2c(C(=O)N3CCCc4ccccc43)c(OCCCN3CCCCC3)ccc12 [compound 8],–,–,–,1 µM,–,–,–,30 µM,–,–,–,–,–,40.886,39.8568,34.126,30.5731,32.7612,39.9555,14.7015,"LDH release (inherent toxicity), mean of independent replicates [2, 8]: 13.9677; LDH release (inherent toxicity), mean of independent replicates [2, 9]: 14.1413; LDH release (inherent toxicity), mean of independent replicates [2, 10]: 16.8035; LDH release (inherent toxicity), mean of independent replicates [2, 11]: 21.145; LDH release (inherent toxicity), mean of independent replicates [2, 12]: 29.4802"
